Patent publication US20150238487A1, “NOVEL ERGOLINE DERIVATIVES AND USES THEREOF” (MAP Pharmaceuticals, Inc., priority 2012, published 2015)

What was measured:
Dopamine D3 = biological target: T1, Dopamine D3 (Homo sapiens, UniProt P35462); test: GTPγ[35S] assay, Dopamine D3; format: biochemical; details: agonism, CHO-K1 membranes
T1 construct: expressed in transfected cells; host or cells: CHO-K1 (membrane extracts)
Protocol: (§1) Receptor […] activity assays were performed using 8′OH-2-CF3-dihydroergotamine (8′OH-2-CF3-DHE). Table 1 summarizes the cell lines (CHO-K1/HEK293 transfected with relevant human receptor) and the assays performed to detect any agonist or antagonist activity.
(§2) GTPγS studies were conducted to monitor agonist activity for 8′OH-2CF3-dihydroergotamine (8′OH-2CF3-DHE) against the receptors indicated in Table 1 above. Reagents used were the following: Assay buffer (20 mM HEPES, pH 7.4; 100 mM NaCl; 10 μg/mL saponin; 30 mM MgCl2); Membranes (recombinant human receptor membrane extracts were thawed on ice and diluted in assay buffer to give 1000 μg/mL ([…]) and kept on ice); GDP (diluted in assay buffer to give 30 μM solution (3 μM final concentration); beads (PVT-WGA (Amersham, RPNQ001), diluted in assay buffer at 25 mg/mL (0.25 mg/10 μL)); GTPγ^35S (Perkin Elmer, NEG030X), diluted in assay buffer to give 0.1 nM (final concentration); and ligand (agonist/antagonist diluted in assay buffer).
(§3) Membranes were mixed with GDP (1:1) and incubated for at least 15 minutes on ice. In parallel GTPγ^35S was mixed with the beads (1:1) just before starting the reaction. […] The plates were then centrifuged for 10 minutes at 2000 rpm and incubated at room temperature for 1 hour and counted for 1 min/well with a Perkin Elmer TopCount reader.

Serotonin 5-HT2B = biological target: T2, Serotonin 5-HT2B (Homo sapiens, UniProt P41595); test: Aequorin assay, Serotonin 5-HT2B; format: cell-based; details: antagonism; CHO-K1 mAeq Gα16, Aequorin
T2 construct: expressed in transfected cells; host or cells: CHO-K1 mAeq Gα16
Protocol: as §1
(§4) Aequorin assays were conducted to monitor activity for 8′OH-2CF3-dihydroergotamine (8′OH-2CF3-DHE) against the receptors indicated in Table 1 above (except for mGlu3 and mGlu5). CHO-K1 cells coexpressing mitochondrial apoaequorin and the recombinant human receptor of interest were grown to mid-log phase in culture media without antibiotics and then detached with PBS-EDTA, centrifuged and resuspended in assay buffer (DMEM/HAM's F12 with HEPES, without phenol red+0.1% BSA, protease free) at a concentration of 1×10^6 cell/mL. […]
(§5) 50 μL of the cell suspension was mixed with 50 μL of test or reference agonist in a 96-well plate. The resulting emission of light was recorded using Hamamatsu Functional Drug Screening System 6000 (FDSS 6000) luminometer. […]
(§6) To standardize the emission of recorded light (and determine of the “100% signal”) across plates and across different experiments, some wells contained 100 μM digitonin or a saturating concentration of ATP (20 μM).

[1] = test system: Somatostatin (SST1 ~ SSTS); test: GTPγ[35S] assay, Somatostatin receptors; format: biochemical, human; details: CHO-K1 membranes
Protocol: as §1, §2, §3

[2] = test system: Purinergic (P2X1/P2X2/P2X3/P2X4/P2X7); test: Purinergic receptor QPatch patch clamp study; format: cell-based, human; details: HEK293, QPatch HT, agonist and antagonist modes at 10 and 30 μM
Protocol: Purinergic receptor studies were conducted to monitor activity for 8′OH-2CF3-dihydroergotamine (8′OH-2CF3-DHE) against the P2X1, P2X2, P2X3, P2X4 and P2X7 receptors. Human recombinant purinergic receptor expressing HEK293 cells were used and receptor activity was evaluated at room temperature using QPatch HT® (Sophion Bioscience A/S, Denmark) automatic parallel patch clamp system. 8′OH-2CF3-DHE was evaluated in both agonist and antagonist modes at 10 and 30 μM. Each concentration was tested in triplicates.

Dopamine D1 = biological target: T3, Dopamine D1 (Homo sapiens, UniProt P21728); test: cAMP HTRF assay, Dopamine D1; format: cell-based; details: CHO-K1, cAMP
T3 construct: expressed in transfected cells; host or cells: CHO-K1
Protocol: as §1
cAMP HTRF (Gs) studies were conducted to monitor activity for 8′OH-2CF3-dihydroergotamine (8′OH-2CF3-DHE) against the receptors indicated in Table 1 above. Cells expressing the human recombinant receptor of interest were grown in media without antibiotic and detached by gentle flushing with PBS-EDTA (5 mM EDTA), recovered by centrifugation and resuspended in assay buffer (KRH: 5 mM KCl, 1.25 mM MgSO4, 124 mM NaCl, 25 mM HEPES, 13.3 mM glucose, 1.25 mM KH2PO4, 1.45 mM CaCl2, 0.5 g/L BSA). Dose response curves were performed in parallel with the reference compounds. For agonist tests (96-well plates), 12 μL of cells was mixed with 12 μL of the test compound at increasing concentrations and then incubated for 30 minutes at room temperature. Lysis buffer was added and after a 1 hour incubation, cAMP concentrations was determined according to the manufacturer specification with the HTRF kit. […] Lysis buffer was added and after a 1 hour incubation, cAMP concentrations were determined according to the manufacturer specification, with the HTRF kit.

Serotonin 5-HT2A = biological target: T4, Serotonin 5-HT2A (Homo sapiens, UniProt P28223); test: Aequorin assay, Serotonin 5-HT2A; format: cell-based; details: agonism; CHO-K1 mAeq Gα16, Aequorin
T4 construct: expressed in transfected cells; host or cells: CHO-K1 mAeq Gα16
Protocol: as §1, §4, §5, §6

Serotonin 5-HT1A = biological target: T5, Serotonin 5-HT1A (Homo sapiens, UniProt P08908); test: GTPγ[35S] assay, Serotonin 5-HT1A; format: biochemical; details: agonism, CHO-K1 membranes
T5 construct: expressed in transfected cells; host or cells: CHO-K1 (membrane extracts)
Protocol: as §1, §2, §3

T2 sequence (P41595 whole entry): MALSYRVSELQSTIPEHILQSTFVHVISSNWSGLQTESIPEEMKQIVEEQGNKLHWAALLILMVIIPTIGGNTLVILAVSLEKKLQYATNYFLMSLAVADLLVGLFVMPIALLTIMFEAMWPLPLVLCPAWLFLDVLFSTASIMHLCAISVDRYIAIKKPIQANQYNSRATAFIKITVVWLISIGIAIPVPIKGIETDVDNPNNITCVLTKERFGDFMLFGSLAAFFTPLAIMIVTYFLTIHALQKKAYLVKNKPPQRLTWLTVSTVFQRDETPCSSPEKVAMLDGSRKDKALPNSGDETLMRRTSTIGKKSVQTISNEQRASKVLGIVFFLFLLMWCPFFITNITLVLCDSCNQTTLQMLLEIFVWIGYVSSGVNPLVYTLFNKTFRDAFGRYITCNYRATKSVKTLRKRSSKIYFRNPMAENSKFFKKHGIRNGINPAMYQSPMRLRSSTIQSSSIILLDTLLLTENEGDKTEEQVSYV
T4 sequence (P28223 whole entry): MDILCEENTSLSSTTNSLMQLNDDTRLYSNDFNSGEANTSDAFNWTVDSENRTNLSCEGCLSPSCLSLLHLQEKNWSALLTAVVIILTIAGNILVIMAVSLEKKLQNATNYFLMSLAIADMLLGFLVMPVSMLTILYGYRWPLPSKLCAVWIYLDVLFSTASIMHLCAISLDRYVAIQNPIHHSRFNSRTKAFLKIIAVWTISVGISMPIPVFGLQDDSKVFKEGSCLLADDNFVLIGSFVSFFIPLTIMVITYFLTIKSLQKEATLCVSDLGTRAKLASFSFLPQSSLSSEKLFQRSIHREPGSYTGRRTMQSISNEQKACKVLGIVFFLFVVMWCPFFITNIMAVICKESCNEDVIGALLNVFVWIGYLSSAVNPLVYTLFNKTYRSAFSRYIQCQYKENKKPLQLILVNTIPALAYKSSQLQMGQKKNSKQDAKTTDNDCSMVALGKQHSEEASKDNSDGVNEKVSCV
T3 sequence (P21728 whole entry): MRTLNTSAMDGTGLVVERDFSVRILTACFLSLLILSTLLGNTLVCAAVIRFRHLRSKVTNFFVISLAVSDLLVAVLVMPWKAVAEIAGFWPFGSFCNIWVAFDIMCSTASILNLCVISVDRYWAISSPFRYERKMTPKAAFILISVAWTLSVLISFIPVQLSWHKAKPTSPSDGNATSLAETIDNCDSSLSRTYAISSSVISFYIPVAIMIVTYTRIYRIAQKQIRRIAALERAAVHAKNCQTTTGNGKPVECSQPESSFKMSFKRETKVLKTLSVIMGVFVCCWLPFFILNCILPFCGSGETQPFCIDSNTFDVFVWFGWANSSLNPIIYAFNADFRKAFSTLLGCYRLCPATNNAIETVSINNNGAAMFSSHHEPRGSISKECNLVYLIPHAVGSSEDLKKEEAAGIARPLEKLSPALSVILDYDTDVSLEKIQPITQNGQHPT
T1 sequence (P35462 whole entry): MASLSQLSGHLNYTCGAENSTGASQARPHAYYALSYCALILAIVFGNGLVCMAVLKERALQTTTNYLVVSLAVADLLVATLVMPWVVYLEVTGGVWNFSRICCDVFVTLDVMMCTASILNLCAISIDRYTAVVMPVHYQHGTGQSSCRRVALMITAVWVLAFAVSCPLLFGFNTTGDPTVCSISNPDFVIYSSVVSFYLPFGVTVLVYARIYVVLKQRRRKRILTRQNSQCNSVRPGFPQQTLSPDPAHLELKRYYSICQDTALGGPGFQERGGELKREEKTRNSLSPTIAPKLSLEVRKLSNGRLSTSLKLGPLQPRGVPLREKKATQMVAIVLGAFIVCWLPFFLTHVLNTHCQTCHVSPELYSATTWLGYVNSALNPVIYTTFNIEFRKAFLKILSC
T5 sequence (P08908 whole entry): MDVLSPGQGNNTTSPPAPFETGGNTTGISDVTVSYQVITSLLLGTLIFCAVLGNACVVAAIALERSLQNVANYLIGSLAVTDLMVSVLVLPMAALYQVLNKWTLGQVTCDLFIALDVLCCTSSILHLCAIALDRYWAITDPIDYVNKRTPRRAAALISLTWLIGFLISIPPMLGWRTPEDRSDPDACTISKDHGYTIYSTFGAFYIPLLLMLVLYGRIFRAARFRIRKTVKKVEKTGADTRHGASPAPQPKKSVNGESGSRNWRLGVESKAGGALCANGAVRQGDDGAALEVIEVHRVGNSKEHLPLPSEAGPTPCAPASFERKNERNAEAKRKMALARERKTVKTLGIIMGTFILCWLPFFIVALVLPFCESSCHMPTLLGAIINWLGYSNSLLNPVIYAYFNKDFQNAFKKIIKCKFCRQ

CN1C[C@H](C(=O)N[C@]2(C)O[C@@]3(O)[C@@H]4CC[C@@H](O)N4C(=O)[C@H](Cc4ccccc4)N3C2=O)C[C@@H]2c3cccc4[nH]c(C(F)(F)F)c(c34)C[C@H]21 [8′OH-2-CF3-DHE, 8′-Hydroxy-2-CF3-dihydroergotamine]
EC50 (Dopamine D3): 32.3 nM | IC50 (Serotonin 5-HT2B): 88.2 nM | Activity (Agonism: EC50; Antagonism: IC50), Somatostatin (SST1 ~ SSTS) [1]: Inactive | Activity (Agonism: EC50; Antagonism: IC50), Purinergic (P2X1/P2X2/P2X3/P2X4/P2X7) [2]: Inactive | Activity (Agonism: EC50; Antagonism: IC50), D1 (Dopamine D1): Inactive | EC50 (Serotonin 5-HT2A): 607 nM | EC50 (Serotonin 5-HT1A): 425 nM
